Data taken from PubChem BioAssay (NCI).
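Five concentrations, 48 hours, 96-well plates. At the GI50, growth is halved. TGI denotes the concentration required for complete inhibition of growth.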

Tests used:
Assay in all cases: growth of human tumour cells (NCI), 48 h
[1] = test system: HOP-62 NSCLC
[2] = test system: M14 melanoma
[3] = test system: U251 CNS
[4] = test system: SF-295 CNS
[5] = test system: LOX IMVI melanoma
[6] = test system: OVCAR-3 ovarian
[7] = test system: HT29 colon
[8] = test system: MDA-MB-435
[9] = test system: LXFL 529 NSCLC
[10] = test system: DMS 273 small cell lung

Row | SMILES | GI50 [1] [µM] | TGI [1] [µM] | GI50 [2] [µM] | TGI [2] [µM] | GI50 [3] [µM] | TGI [3] [µM] | GI50 [4] [µM] | TGI [4] [µM] | GI50 [5] [µM] | TGI [5] [µM] | GI50 [6] [µM] | TGI [6] [µM] | GI50 [7] [µM] | TGI [7] [µM] | GI50 [8] [µM] | TGI [8] [µM] | TGI [9] [µM] | TGI [10] [µM]
1 | Nc1c(C(=O)c2ccc(-c3cccnc3)cc2)cnn1-c1ccc(F)cc1 | > 18.7 | > 25 | > 25 | > 25 | > 15.2 | > 25 | > 25 | > 25 | > 25 | > 25 | > 22.8 | > 25 | > 21.6 | > 25 | > 25 | > 25 | – | –
2 | CCOC(=O)c1ccc2c(c1)Cc1cc([N+](=O)[O-])ccc1-2 | – | > 100 | – | > 100 | – | > 100 | – | > 100 | – | > 100 | – | > 100 | – | 86.4 | – | > 100 | – | –
3 | CN1CCC(COc2cnc(-c3cccc(Cn4nc(-c5cccc(C#N)c5)ccc4=O)c3)nc2)CC1 | 4.24 | 14.2 | 1.96 | 3.64 | 2.43 | 7.68 | 0.771 | 16.5 | 1.93 | 4.09 | 2.45 | 6.06 | 2.04 | 4.66 | 2.74 | 9.47 | – | –
4 | CSC1=Nc2c(c(C)c(-c3ccccc3)n2CCCN2CCCCC2)C2=NC(=O)C[C@H](C)N12 | 3.11 | 15.8 | 3.68 | 16.1 | 2.71 | 17.7 | 2.54 | 9.19 | 3.16 | 13.4 | 2.55 | 11 | 2.38 | 10.9 | 2.97 | 10.8 | – | –
5 | CSc1ccc(-c2ccccc(=O)c2O)cc1 | 0.54 | 50.9 | 0.347 | 2.68 | 0.568 | 24.6 | 0.437 | 18.3 | 0.336 | 17.1 | 0.373 | 29.7 | 0.714 | > 100 | 0.646 | > 100 | – | –
6 | CCOC(=O)C1SC(=Nc2cccc(Cl)c2C)N=C1C (centres undefined) | – | > 100 | – | – | – | 30.3 | – | 39.7 | – | 32 | – | 42.5 | – | 32.6 | – | – | > 10 | –
7 | COc1ccc(/C=C(/C(=O)N2CCN(c3ccccc3)CC2)c2cc(OC)c(OC)c(OC)c2)cc1N | 0.429 | > 100 | 0.254 | 3.58 | 0.361 | > 100 | 0.342 | > 100 | 0.696 | > 100 | 0.366 | > 100 | 0.366 | 13.3 | 0.138 | 0.419 | – | –
8 | CC[C@@H]1[C@@H](C)O[C@@](O)([C@@H](C)[C@H](O)[C@H](C)[C@H]2OC(=O)/C=C/C=C/[C@H](C)[C@@H]([C@@H](C)[C@@H](O)[C@H](C)[C@@]3(O)C[C@@H](O[C@H]4C[C@@H](O)[C@H](O)C(C)O4)[C@H](CC)[C@@H](C)O3)OC(=O)/C=C/C=C/[C@@H]2C)C[C@H]1O[C@@H]1C[C@@H](O)[C@H](O)C(C)O1 (some centres undefined) | 0.073 | 0.171 | 0.0653 | 0.142 | 0.113 | 0.39 | 0.061 | 0.132 | 0.0611 | 0.117 | 0.0791 | 0.219 | 0.109 | 0.389 | 0.0867 | 0.261 | – | –
9 | O=C1CC[C@H](N2C(=O)c3cccc4c(Cc5ccc(CN6CCOCC6)cc5)ccc2c34)C(=O)N1 | 52.3 | > 100 | 62 | > 100 | 60.3 | > 100 | 19.3 | > 100 | 26.1 | > 100 | 65.6 | > 100 | 28.9 | > 100 | 36.9 | > 100 | – | –
10 | C=C(C)[C@@H]1CC[C@]2(COCCC#N)CC[C@]3(C)[C@H](CC[C@@H]4[C@@](C)(CCCNCCC#N)[C@H](C(=C)C)CC[C@]43C)[C@@H]12 | 49.7 | > 50 | 14.7 | > 50 | 13.9 | 47.1 | > 50 | > 50 | 8.47 | 16.7 | 9.66 | 22.4 | 7.88 | 19.8 | 12.7 | 34.5 | – | –
11 | OC(c1cc(-c2cccc(Cl)c2)nc2ccccc12)C1CCCCN1 (centres undefined) | 1.78 | 3.32 | 1.91 | 3.74 | 1.66 | 3.05 | 1.59 | 3.22 | 1.76 | 3.36 | 1.81 | 3.21 | 1.7 | 3.42 | 1.63 | 3.15 | – | –
12 | Cc1cc(=O)[nH]c(N/N=C/c2cc(Br)ccc2O)n1 | 1.41 | > 100 | 0.53 | > 100 | 0.808 | > 100 | 0.193 | 0.568 | 0.634 | > 100 | 0.34 | 38.6 | 13.3 | > 100 | 1.77 | 81.5 | – | –
13 | NC1=CC(=O)c2cccnc2C1=O | 1.32 | 2.77 | 1.7 | 3.24 | 1.46 | 2.83 | 1.62 | 3.1 | 0.981 | 2.69 | 1.44 | 3.16 | 3.48 | 14.6 | 0.833 | 2.12 | – | –
14 | O=C(/C=C/c1ccco1)c1cc(F)c(Cl)cc1Cl | 19.2 | 39.1 | 19.5 | 38.4 | 19.3 | 46 | 24.3 | 65.9 | 22.4 | 58.2 | 21.4 | 60.4 | 24.3 | 52.1 | 32.2 | > 100 | – | –
15 | COC(=O)C(Cc1nc2ccccc2[nH]c1=O)/C(=N\NC(C)(C)C)C(=O)Nc1c(C)cc(Br)cc1C (centres undefined) | – | > 100 | – | 49.3 | – | 49.9 | – | > 100 | – | 40.7 | – | – | – | > 100 | – | – | 47.9 | –
16 | Cc1cc([N+](=O)[O-])ccc1NC(=O)C(=O)C(C(=O)c1ccccc1-c1ccccc1)C1OC(=O)c2ccccc21 (centres undefined) | – | – | – | 27.4 | – | 26 | – | 50.9 | – | – | – | – | – | 41.9 | – | – | 30 | 25.5

Row | SMILES | GI50 [1] [µM] | TGI [1] [µM] | GI50 [2] [µM] | TGI [2] [µM] | GI50 [3] [µM] | TGI [3] [µM] | GI50 [4] [µM] | TGI [4] [µM] | GI50 [5] [µM] | TGI [5] [µM] | GI50 [6] [µM] | TGI [6] [µM] | GI50 [7] [µM] | TGI [7] [µM] | GI50 [8] [µM] | TGI [8] [µM] | TGI [9] [µM] | TGI [10] [µM]
17 | Cn1cc(C2=C(c3ccccc3[N+](=O)[O-])C(=O)NC2=O)c2ccccc21 | 5.35 | > 23.3 | 6.32 | > 20.9 | 1.77 | > 25 | 1.44 | > 25 | 3.13 | > 25 | 2.32 | > 21.8 | 1.81 | 12.4 | 4.82 | > 25 | – | –
18 | COC1=CC(c2ccc[nH]2)=N/C1=C\c1[nH]c(C)c(CC(=O)OCc2ccccc2)c1CCC(=O)OCc1ccccc1 | 0.365 | 2.39 | 0.223 | 0.573 | 0.345 | 1.68 | 0.305 | 1.3 | 0.284 | 1.03 | 0.363 | 1.46 | 0.287 | 2.5 | 0.412 | 1.64 | – | –
19 | N#Cc1c(NC(=O)NCc2ccccc2)sc2c1CCCC2 | 1.51 | > 74.8 | 0.421 | > 100 | 0.66 | > 81.7 | 0.549 | 37.7 | 0.643 | > 100 | 0.344 | 1.87 | 0.392 | > 100 | 0.215 | 0.595 | – | –
20 | C=C(C)C1CC/C(C)=C/CCC2(C)OC2CC/C(CO)=C\C1O (centres undefined) | – | > 100 | – | > 100 | – | > 100 | – | > 100 | – | > 100 | – | > 100 | – | > 100 | – | > 100 | – | –
21 | Cc1cc(Nc2ccc(OCc3ccccc3)cc2)nc2cc(O)ccc12 | 11.7 | 26.5 | 2.39 | 6.15 | 4.54 | 17.5 | 2.23 | 5.36 | 2.47 | 6.47 | 8.79 | 22.5 | 3.86 | 14.9 | 5.49 | 17.9 | – | –
22 | CC1(C)N=C(N)N=C(N)N1c1ccc(CCCCc2ccccc2)c(Cl)c1 | 0.0672 | 5.46 | 0.0598 | 8.77 | < 0.01 | 1.83 | 0.0457 | 14.6 | 0.0131 | 1.52 | 0.0541 | 1.76 | < 0.01 | 1.55 | 0.038 | 5.91 | – | –
23 | CO/C=C/C(=O)c1cc2cnc3c(=N)cc(NC(=O)C(C)C)c([nH]1)c23 | 0.0844 | 1.04 | 0.0703 | 0.529 | 0.0889 | 0.61 | 0.105 | 0.771 | 0.0694 | 0.429 | 0.0418 | 0.353 | 0.0801 | 0.721 | 0.0852 | 0.836 | – | –
24 | C=CCC(N[C@@H](CO)c1ccccc1)c1cn(Cc2ccccc2Cl)c(=O)n(Cc2ccccc2Cl)c1=O (some centres undefined) | > 100 | > 100 | > 100 | > 100 | > 100 | > 100 | > 100 | > 100 | > 100 | > 100 | > 100 | > 100 | > 100 | > 100 | > 100 | > 100 | – | –
25 | CN(C)c1ccc(/C=C/c2ccnc3c(O)cccc23)cc1 | 0.469 | > 58.9 | 0.304 | 1.58 | 0.338 | > 100 | 1.06 | > 100 | 0.313 | > 100 | 0.462 | > 100 | 11.7 | > 100 | 0.455 | > 100 | – | –
26 | CC(C)N1CC2CN(Cc3ccccc3)CC(C1)C2=O | – | > 100 | – | > 100 | – | > 100 | – | > 100 | – | > 100 | – | > 100 | – | > 100 | – | > 100 | – | –
27 | Cc1cccc(-c2[nH]ncc2-c2ccc3ncccc3n2)n1 | 9.59 | > 25 | 10.8 | > 25 | 9.54 | > 25 | 13.7 | > 25 | 7.56 | > 25 | 14.4 | > 25 | 12.1 | > 25 | 15.4 | > 25 | – | –
28 | Cc1ccc(NC(=O)c2ccc(CN3CCN(C)CC3)cc2)cc1Nc1nccc(-c2cccnc2)n1 | 21.9 | 47 | 19.1 | 35.7 | 17.7 | 45.1 | 17.8 | 38.3 | 13.1 | 34.8 | 31.1 | 72.9 | 4.88 | 24.1 | 17.4 | 36 | – | –
29 | Cc1cc(Cl)cc2c(N=Nc3ccc(S(N)(=O)=O)cc3)c(O)[nH]c12 | > 25 | > 25 | > 25 | > 25 | > 25 | > 25 | > 25 | > 25 | > 25 | > 25 | > 25 | > 25 | > 25 | > 25 | > 25 | > 25 | – | –
30 | COc1c(O)c(OC)c2oc(-c3ccc(O)c(O)c3)c(OC)c(=O)c2c1O | – | 43.7 | – | 50.7 | – | 78.1 | – | > 100 | – | 95.9 | – | 8.53 | – | > 100 | – | 56.7 | – | –
31 | Cc1c(O)c2ccccc2oc1=O | – | > 100 | – | > 100 | – | > 100 | – | > 100 | – | > 100 | – | > 100 | – | > 100 | – | > 100 | – | –
32 | C[n+]1c(/C=C/c2c[nH]c3ccccc23)ccc2ccccc21 | 12.8 | 31.8 | 14 | 33.2 | 8.75 | 22.5 | 6.93 | 20.5 | 11 | 23.1 | 7.07 | 26.7 | 5.06 | 27.5 | 7.95 | 20.6 | – | –
